Experimental data: ChEMBL document CHEMBL1201862, “PubChem BioAssay data set” (2004)
Several values for one entry are separate records, joined by “and”; a condition that tells them apart may be missing. Equal values may be shown once.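 Tested at 5 concentrations; 48 h exposure; 96-well plates; endpoints linearly interpolated, else capped at highest concentration. GI50 = concentration required for 50% inhibition of growth.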 Activity calls are given as the source filed them. No stated cut-off is given here; in the data, active = GI50 up to about 1.1 µM and inactive = higher. Non-standard residues stand in square brackets, D forms with d. Residues, ends and D or L forms follow the SMILES beside them. ξ: configuration not given here. *: point of attachment. NMeF = CN[C@@H](Cc1ccccc1)C(=O)O; ξNMeV = CNC(C(=O)O)C(C)C; Boc = CC(C)(C)OC(=O)*; OBn = c1ccc(CO*)cc1

Legend:
Assay in all cases: DTP human tumour cell line panel, 48 h
[1] = system: DMS-114
[2] = system: LXFL 529
[3] = system: DLD-1
[4] = system: XF498
[5] = system: DMS-273
[6] = system: KM-20L2
[7] = system: M19-MEL
[8] = system: RXF 631
[9] = system: HOP-18

`C=CCn1c(=S)sc2c(O)ncnc21` was tested, and the GI50 [1] was > 100 µM (inactive), the GI50 [2] was > 100 µM (inactive) and the GI50 [3] was > 100 µM (inactive). The GI50 [4] was > 100 µM (inactive), the GI50 [5] was > 100 µM (inactive) and the GI50 [6] was > 100 µM (inactive). For the same compound, the GI50 [7] was > 100 µM (inactive).

For `COC(=O)C(Cc1nc2ccccc2nc1C)/C(=N\NC(N)=O)C(=O)Nc1cccc([N+](=O)[O-])c1` (centres undefined), the GI50 [1] was 51.5 µM (inactive), the GI50 [2] was 37.7 µM (inactive) and the GI50 [3] was > 100 µM (inactive). The GI50 [4] was > 100 µM (inactive), the GI50 [6] was > 100 µM (inactive) and the GI50 [8] was > 100 µM (inactive). For the same compound, the GI50 [7] was 37.9 µM (inactive) and the GI50 [9] was > 100 µM (inactive).

`Cc1ccc(N2C(=O)/C(=C3\Sc4c(nc(C)[nH]c4=O)N3c3ccccc3)SC2=S)cc1` was tested, and the GI50 [1] was 72.6 µM (inactive), the GI50 [2] was 18.5 µM (inactive) and the GI50 [3] was 91.2 µM (inactive). The GI50 [4] was 20.9 µM (inactive), the GI50 [5] was 34.6 µM (inactive) and the GI50 [6] was > 100 µM (inactive). For the same compound, the GI50 [7] was 63.5 µM (inactive).

For `COC(=O)C1=CC2CC1C(S(=O)(=O)c1ccccc1)C2S(=O)(=O)c1ccccc1` (centres undefined), the GI50 [1] was 15.5 µM (inactive), the GI50 [2] was 5.81 µM (inactive) and the GI50 [3] was 14.5 µM (inactive). For the same compound, the GI50 [5] was 10.5 µM (inactive), the GI50 [6] was 16.4 µM (inactive) and the GI50 [8] was 13.5 µM (inactive). The GI50 [7] was 18.3 µM (inactive) and the GI50 [9] was 16.7 µM (inactive).

In the case of `CN(c1nc(=[N+](C)C)ss1)C1CCCCC1`, the GI50 [1] is reported as 32.1 µM (inactive), the GI50 [2] is reported as > 100 µM (inactive) and the GI50 [3] is reported as > 100 µM (inactive). For the same compound, the GI50 [4] was > 100 µM (inactive), the GI50 [5] was > 100 µM (inactive) and the GI50 [6] was > 100 µM (inactive). The GI50 [8] was > 100 µM (inactive), the GI50 [7] was > 100 µM (inactive) and the GI50 [9] was > 100 µM (inactive).

`C=CCCCCCC(O)C(O)C/C=C\C/C=C\CC` (centres undefined) was tested, and the GI50 [1] was > 16.8 µM (inactive), the GI50 [2] was > 18.8 µM (inactive) and the GI50 [3] was > 18.8 µM (inactive). The GI50 [4] was > 18.8 µM (inactive), the GI50 [5] was > 18.8 µM (inactive) and the GI50 [6] was > 18.8 µM (inactive). For the same compound, the GI50 [9] was > 18.8 µM (inactive).

`Clc1cc2n[se]nc2cc1Cl` was tested, and the GI50 [1] was > 100 µM (inactive), the GI50 [2] was > 100 µM (inactive) and the GI50 [3] was > 100 µM (inactive). The GI50 [4] was > 100 µM (inactive), the GI50 [5] was > 100 µM (inactive) and the GI50 [6] was > 100 µM (inactive). For the same compound, the GI50 [8] was > 100 µM (inactive), the GI50 [7] was > 100 µM (inactive) and the GI50 [9] was > 100 µM (inactive).

With `C1COCCN1.S=C(S)N1CCOCC1` the GI50 [1] was 0.279 µM (active), the GI50 [2] was 1.34 µM (inactive) and the GI50 [3] was 0.628 µM (active). The GI50 [4] was 1.92 µM (inactive), the GI50 [5] was 1.38 µM (inactive) and the GI50 [6] was 1.43 µM (inactive). For the same compound, the GI50 [7] was 1.25 µM (inactive) and the GI50 [9] was > 100 µM (inactive).

For `COc1cccc2c(SCC(=O)Nc3ccccc3-c3ccccc3NC(=O)CSc3c4ccccc4nc4c(OC)cccc34)c3ccccc3nc12`, the GI50 [1] was 29.1 µM (inactive), the GI50 [3] was > 100 µM (inactive) and the GI50 [4] was 76.6 µM (inactive). For the same compound, the GI50 [5] was 71.3 µM (inactive), the GI50 [6] was > 100 µM (inactive) and the GI50 [8] was 47.6 µM (inactive).

In the case of `CCCC(N)C(=O)c1ccccc1` (centres undefined), the GI50 [1] is reported as > 100 µM (inactive), the GI50 [2] is reported as > 100 µM (inactive) and the GI50 [3] is reported as > 100 µM (inactive). The GI50 [4] was > 100 µM (inactive), the GI50 [5] was > 100 µM (inactive) and the GI50 [6] was > 100 µM (inactive). The GI50 [9] was > 100 µM (inactive).

In the case of `CCOC(=O)c1cnc2[nH]c(=O)c3ccccc3n2c1=O`, the GI50 [2] is reported as > 100 µM (inactive), the GI50 [3] is reported as > 100 µM (inactive) and the GI50 [4] is reported as > 100 µM (inactive). For the same compound, the GI50 [5] was > 100 µM (inactive), the GI50 [6] was > 100 µM (inactive) and the GI50 [8] was > 100 µM (inactive). The GI50 [7] was > 100 µM (inactive) and the GI50 [9] was > 100 µM (inactive).

With `COC1=C(NC(C)=O)C(=O)c2nc3n(c2C1=O)CCC3` the GI50 [1] was 12.2 µM (inactive), the GI50 [3] was 15 µM (inactive) and the GI50 [4] was 19.1 µM (inactive). The GI50 [5] was 18.7 µM (inactive), the GI50 [6] was 38.3 µM (inactive) and the GI50 [9] was 18.9 µM (inactive).

In the case of `COc1ccc2nc3cc(Cl)ccc3c(Sc3ccc([N+](=O)[O-])cc3C)c2c1`, the GI50 [1] is reported as > 100 µM (inactive), the GI50 [2] is reported as > 100 µM (inactive) and the GI50 [3] is reported as > 100 µM (inactive). For the same compound, the GI50 [4] was > 100 µM (inactive), the GI50 [5] was > 100 µM (inactive) and the GI50 [6] was > 100 µM (inactive). For the same compound, the GI50 [7] was > 100 µM (inactive) and the GI50 [9] was > 100 µM (inactive).

In the case of `CC(=O)O[C@H]1CC[C@@]2(C)C(=CC[C@@H]3C2CC[C@]2(C)C(=O)NC(=O)CC32)C1` (some centres undefined), the GI50 [1] is reported as > 79.6 µM (inactive), the GI50 [2] is reported as > 100 µM (inactive) and the GI50 [3] is reported as > 100 µM (inactive). The GI50 [4] was > 100 µM (inactive), the GI50 [5] was 62.7 µM (inactive) and the GI50 [6] was > 100 µM (inactive). The GI50 [8] was > 100 µM (inactive), the GI50 [7] was > 100 µM (inactive) and the GI50 [9] was > 100 µM (inactive).

In the case of `C=C/C=C/NC(=O)OCc1ccccc1`, the GI50 [1] is reported as > 100 µM (inactive), the GI50 [2] is reported as > 100 µM (inactive) and the GI50 [3] is reported as > 100 µM (inactive). For the same compound, the GI50 [4] was > 100 µM (inactive), the GI50 [5] was > 100 µM (inactive) and the GI50 [6] was > 100 µM (inactive). For the same compound, the GI50 [7] was > 100 µM (inactive) and the GI50 [9] was > 100 µM (inactive).

With `NC1=NS(=O)(=O)Nc2nc(-c3ccc(Cl)cc3)c(-c3ccc(Cl)cc3)nc21` the GI50 [1] was 32.1 µM (inactive), the GI50 [2] was 34.9 µM (inactive) and the GI50 [3] was > 100 µM (inactive). For the same compound, the GI50 [4] was 69.3 µM (inactive), the GI50 [5] was > 100 µM (inactive) and the GI50 [8] was > 100 µM (inactive). The GI50 [7] was > 100 µM (inactive) and the GI50 [9] was > 100 µM (inactive).

`Nc1ccc(C(=O)O)c2[nH]c3ccccc3c(=O)c12` was tested, and the GI50 [1] was > 100 µM (inactive), the GI50 [2] was > 100 µM (inactive) and the GI50 [3] was > 100 µM (inactive). For the same compound, the GI50 [5] was > 100 µM (inactive), the GI50 [6] was > 100 µM (inactive) and the GI50 [7] was > 100 µM (inactive). The GI50 [9] was > 100 µM (inactive).

For `CC1=C(C(=O)Nc2c(C)cccc2C)C(c2ccc3c(c2)OCO3)C(C(=O)Nc2c(C)cccc2C)=C(C)N1`, the GI50 [1] was 16.6 µM (inactive), the GI50 [2] was 18 µM (inactive) and the GI50 [3] was 19.3 µM (inactive). For the same compound, the GI50 [6] was 15.5 µM (inactive), the GI50 [8] was 16.7 µM (inactive) and the GI50 [9] was 18.9 µM (inactive).

`CCCCCC(CN1CCOCC1)C(=O)/C=C/c1ccccc1` (centres undefined) was tested, and the GI50 [1] was 1.79 µM (inactive), the GI50 [4] was 1.72 µM (inactive) and the GI50 [5] was 2.31 µM (inactive). The GI50 [6] was 3.03 µM (inactive) and the GI50 [7] was 2.41 µM (inactive).

With `O=S(O)CCCCSSCC(O)C(O)CSSCCCCS(=O)O` (centres undefined) the GI50 [1] was 18.3 µM (inactive) and 14.6 µM (inactive), the GI50 [2] was 9.35 µM (inactive) and 12.5 µM (inactive) and the GI50 [3] was 41.1 µM (inactive) and 68.4 µM (inactive). For the same compound, the GI50 [4] was 12.4 µM (inactive) and 19 µM (inactive), the GI50 [5] was 35 µM (inactive) and 19.7 µM (inactive) and the GI50 [6] was > 100 µM (inactive) and 50.6 µM (inactive). For the same compound, the GI50 [8] was 22.2 µM (inactive) and 29.2 µM (inactive), the GI50 [7] was 5.48 µM (inactive) and 3.37 µM (inactive) and the GI50 [9] was > 100 µM (inactive).

`CCN(CC)CCCCC1CCN(CC(=O)N2c3ccccc3NC(=O)c3ccccc32)CC1` was tested, and the GI50 [1] was > 100 µM (inactive), the GI50 [2] was > 100 µM (inactive) and the GI50 [3] was > 100 µM (inactive). The GI50 [4] was > 100 µM (inactive), the GI50 [5] was > 100 µM (inactive) and the GI50 [8] was > 100 µM (inactive). The GI50 [7] was > 100 µM (inactive).

`[N-]=[N+]=NC1C(Cl)C(=O)NC(=O)N1[C@H]1C[C@H](O)[C@@H](CO)O1` (some centres undefined) was tested, and the GI50 [1] was > 100 µM (inactive), the GI50 [2] was > 100 µM (inactive) and the GI50 [3] was > 100 µM (inactive). For the same compound, the GI50 [4] was > 100 µM (inactive), the GI50 [5] was > 100 µM (inactive) and the GI50 [6] was > 100 µM (inactive). For the same compound, the GI50 [8] was > 100 µM (inactive).

For `CC1CCCCc2nc3c(c(=O)n21)CCCC3` (centres undefined), the GI50 [2] was > 100 µM (inactive), the GI50 [3] was > 100 µM (inactive) and the GI50 [4] was > 100 µM (inactive). The GI50 [5] was > 100 µM (inactive), the GI50 [6] was > 100 µM (inactive) and the GI50 [8] was 29.4 µM (inactive). The GI50 [7] was > 100 µM (inactive).

`CC(C)C(C(=O)N1CCC[C@@H]1C(=O)OCc1ccccc1)N(C)C(=O)C(C(C)C)N(C)C(=O)[C@H](Cc1ccccc1)N(C)C(=O)[C@H](NC(=O)OC(C)(C)C)C(C)C` (some centres undefined) (Boc-[dV][NMeF][ξNMeV][ξNMeV][dP]-OBn) was tested, and the GI50 [1] was 8.57 µM (inactive), the GI50 [2] was 8.81 µM (inactive) and the GI50 [3] was > 100 µM (inactive). The GI50 [4] was > 68.5 µM (inactive), the GI50 [5] was 42.9 µM (inactive) and the GI50 [6] was > 100 µM (inactive). The GI50 [7] was > 48.5 µM (inactive) and the GI50 [9] was > 100 µM (inactive).
